Reference: patent US20110039763A1, “TARGETED ANTIMICROBIAL MOIETIES” (C3 JIAN, INC., priority 2009, published 2011)

How the values were obtained:
microorganisms [1] = assay: Morphology, biofilm and growth disrupting peptides (Table 5); type: cell-based; design: key: A: Peptide aggregates; B: Less hyphal formation; Clumps; Diffuse clumps and small polyps; F: Diffuse growth; H: Thin; I: Growth inhibition; Microcolony formation; Rippled; Small polyps; Thick; W: Halo formation on top, microlonies on bottom
Description: In certain embodiments peptides that induce alterations in phenotype or other biological activities can also be used as antimicrobial effector moieties.

microorganisms [2] = assay: Peptide activities: targeting/binding, antimicrobial, growth or phenotype altering (Tables 7, 8); type: cell-based; conditions: peptides having multiple activities
Description: In certain embodiments, peptides described herein can have multiple activities. Thus for example, a peptide can have both binding/targeting activity and antimicrobial activity. Such peptides can be used, e.g., in a chimeric construct, for any or all of these properties. Thus, for example, a peptide designated “B” in Table 8 can be used as a targeting peptide. If it is also designated G or M it can also be used for antimicrobial activity.
Table 8. Peptides Having Multiple Activities. B: Targeting/Binding Activity; M: Antimicrobial Activity; G: GROWTH or Phenotype Altering.

Row | Substance | Organism, effect: C. albicans (microorganisms [1]; C. albicans) | Organism, effect: C. jeikeium (microorganisms [1]) | Organism, effect: C. jejuni (microorganisms [1]) | Organism, effect: M. luteus (microorganisms [1]) | Organism, effect: MRSA (microorganisms [1]) | Organism, effect: P. aeruginosa (microorganisms [1]) | Organism, effect: S. epidermidis (microorganisms [1]) | Organism, effect: S. pneumoniae (microorganisms [1]) | Activities (microorganisms [2]) | Organism, effect: B. subtilis (microorganisms [1]; B. subtilis) | Organism, effect: E. coli (microorganisms [1]) | Organism, effect: E. faecalis (microorganisms [1])
1 | PF-140: peptide having multiple activities (chain 1 FHRRVIRASEWALTTRSFSTPLRSAAR; chain 2 FHRRVIRASEWALTTRSFSTPLRSAAR; Peptide with targeting and/or antimicrobial activity) | C. albicans (B) | C. jeikeium (D) | C. jejuni (D) | M. luteus (R) | MRSA (M) | P. aeruginosa (A) | S. epidermidis (D) | S. pneumoniae (D) | G B |  |  | 
2 | PF-145: peptide having multiple activities (chain 1 GIVLTGRAGLVSGACSMALGVGLG; chain 2 GIVLTGRAGLVSGACSMALGVGLG; Peptide with targeting and/or antimicrobial activity) |  | C. jeikeium (R) | C. jejuni (R) | M. luteus (A) | MRSA (M) |  | S. epidermidis (D) | S. pneumoniae (R) | G B | B. subtilis (C) |  | 
3 | PF-157: peptide having multiple activities (HTAVVWLAGVSGCVALSHCEPA; Peptide with targeting and/or antimicrobial activity) |  |  |  |  |  |  | S. epidermidis (M) |  | G B |  |  | 
4 | PF-178: peptide having multiple activities (EVYSSPTNNVAITVQNN; Peptide with targeting and/or antimicrobial activity) |  |  |  |  | MRSA (M) |  | S. epidermidis (D) | S. pneumoniae (D) | G B |  | E. coli (C) | 
5 | PF-190: peptide having multiple activities (HFILRKPLLFMIHSLKTGPLDRF; Peptide with targeting and/or antimicrobial activity) |  | C. jeikeium (R) |  |  |  |  | S. epidermidis (C) |  | G B |  |  | 
6 | PF-196: peptide having multiple activities (TTARYIRRQCHTSITPLSQG; Peptide with targeting and/or antimicrobial activity) |  | C. jeikeium (R) |  |  |  |  | S. epidermidis (C) |  | G B |  |  | 
7 | PF-203: peptide having multiple activities (SWKCHHLAI; Peptide with targeting and/or antimicrobial activity) |  | C. jeikeium (R) |  |  |  |  | S. epidermidis (A) |  | G B |  |  | 
8 | PF-347: peptide having multiple activities (GIFTGVTVVVSLKHC; Peptide with targeting and/or antimicrobial activity) |  |  |  |  | MRSA (C) |  | S. epidermidis (C) |  | G B |  | E. coli (C) | E. faecalis (C)
9 | PF-354: peptide having multiple activities (FTFSKCRASNGRGFGTLWL; Peptide with targeting and/or antimicrobial activity) |  |  |  |  | MRSA (H) |  |  |  | G B |  |  | 
10 | PF-355: peptide having multiple activities (chain 1 WIAIGLLLYFSLKNQ; chain 2 WIAIGLLLYFSLKNQ; Peptide with targeting and/or antimicrobial activity) |  |  | C. jejuni (D) |  | MRSA (A) | P. aeruginosa (A) | S. epidermidis (C) | S. pneumoniae (D) | G B |  | E. coli (C) | E. faecalis (D)
11 | PF-356: peptide having multiple activities (chain 1 VSIKIGAIVIGMIGLMELLTE; chain 2 VSIKIGAIVIGMIGLMELLTE; Peptide with targeting and/or antimicrobial activity) |  |  | C. jejuni (D) |  | MRSA (C) | P. aeruginosa (A) | S. epidermidis (S) | S. pneumoniae (R) | G B |  |  | E. faecalis (R)
12 | PF-357: peptide having multiple activities (chain 1 MLTIIIGFIFWTMTLMLGYLIGEREGRKHE; chain 2 MLTIIIGFIFWTMTLMLGYLIGEREGRKHE; Peptide with targeting and/or antimicrobial activity) |  |  |  | M. luteus (C) | MRSA (M) |  | S. epidermidis (M) | S. pneumoniae (M) | G B |  |  | 
13 | PF-374: peptide having multiple activities (chain 1 HLFFVKGMFILCQKNQINDE; chain 2 HLFFVKGMFILCQKNQINDE; Peptide with targeting and/or antimicrobial activity) |  |  |  |  | MRSA (M) |  | S. epidermidis (C) |  | G B |  | E. coli (C) | E. faecalis (C)
14 | PF-376: peptide having multiple activities (chain 1 MTVFEALMLAIAFATLIVKISNKNDKK; chain 2 MTVFEALMLAIAFATLIVKISNKNDKK; Peptide with targeting and/or antimicrobial activity) |  |  |  |  | MRSA (C) |  | S. epidermidis (C) |  | G B |  | E. coli (C) | E. faecalis (C)
15 | PF-379: peptide having multiple activities (chain 1 VFVVLFIIYLASKLLTKLFPIKK; chain 2 VFVVLFIIYLASKLLTKLFPIKK; Peptide with targeting and/or antimicrobial activity) |  |  |  |  | MRSA (C) |  | S. epidermidis (C) |  | G B |  | E. coli (C) | E. faecalis (C)
16 | PF-380: peptide having multiple activities (chain 1 KKIIPLITLFVVTLVG; chain 2 KKIIPLITLFVVTLVG; Peptide with targeting and/or antimicrobial activity) |  |  | C. jejuni (D) |  | MRSA (D) | P. aeruginosa (A) | S. epidermidis (C) | S. pneumoniae (D) | G B |  | E. coli (C) | E. faecalis (C)
17 | PF-386: peptide having multiple activities (chain 1 FTLTLITTIVAILNYKDKKK; chain 2 FTLTLITTIVAILNYKDKKK; Peptide with targeting and/or antimicrobial activity) |  |  |  |  | MRSA (C) |  | S. epidermidis (C) |  | G B |  | E. coli (C) | E. faecalis (C)
18 | PF-398: peptide having multiple activities (chain 1 ILVVLAGILLVVLSYVGISKFKMNC; chain 2 ILVVLAGILLVVLSYVGISKFKMNC; Peptide with targeting and/or antimicrobial activity) |  |  |  |  | MRSA (C) |  | S. epidermidis (C) |  | G B |  | E. coli (C) | E. faecalis (C)
19 | PF-399: peptide having multiple activities (chain 1 FPIISALLGAIICIAIYSFIVNRKA; chain 2 FPIISALLGAIICIAIYSFIVNRKA; Peptide with targeting and/or antimicrobial activity) |  |  |  |  | MRSA (C) |  | S. epidermidis (C) |  | G B |  | E. coli (C) | E. faecalis (C)
20 | PF-407: peptide having multiple activities (chain 1 KPKNKKEKTVISYEKLLSMY; chain 2 KPKNKKEKTVISYEKLLSMY; Peptide with targeting and/or antimicrobial activity) |  |  |  |  | MRSA (C) |  | S. epidermidis (M) | S. pneumoniae (R) | G B |  |  | E. faecalis (R)
21 | PF-410: peptide having multiple activities (chain 1 FALELIALCRNLFIVYFP; chain 2 FALELIALCRNLFIVYFP; Peptide with targeting and/or antimicrobial activity) |  |  |  |  | MRSA (M) |  | S. epidermidis (C) |  | G B |  | E. coli (S) | E. faecalis (C)
